Data reported in ChEMBL document CHEMBL1201862, “PubChem BioAssay data set” (2004).
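Growth conditions: 96-well plates. Treatment: test compound, 48 hours, 5 concentrations. Analysis: linear interpolation between bracketing concentrations; unreached endpoints set to highest concentration. Here, GI50 denotes the concentration required for 50% inhibition of growth.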 Calls of active or inactive are those of the source. Cut-off read from the data, not from the text of the source: active = GI50 up to about 1.1 µM and inactive = higher.

Key:
Test in all cases: inhibition of tumour cell growth, NCI panel, 48 h
[1] = system: SNB-19
[2] = system: HT-29
[3] = system: SK-MEL-28
[4] = system: K562
[5] = system: HCT-116
[6] = system: LOX IMVI
[7] = system: PC-3
[8] = system: HOP-18
[9] = system: NCI/ADR-RES
[10] = system: SN12C
[11] = system: SK-MEL-2
[12] = system: SNB-78
[13] = system: SW-620
[14] = system: IGROV-1
[15] = system: M14
[16] = system: HCC 2998
[17] = system: CCRF-CEM
[18] = system: RXF 631
[19] = system: OVCAR-4
[20] = system: MDA-MB-435
[21] = system: MDA-N
[22] = system: SR
[23] = system: DLD-1
[24] = system: MOLT-4
[25] = system: HOP-92
[26] = system: KM12
[27] = system: TK-10
[28] = system: SF-539
[29] = system: MCF7
[30] = system: U-251
[31] = system: NCI-H522
[32] = system: MDA-MB-231
[33] = system: KM-20L2
[34] = system: SK-OV-3
[35] = system: RPMI-8226
[36] = system: Hs-578T
[37] = system: ACHN
[38] = system: COLO 205
[39] = system: A498
[40] = system: SK-MEL-5
[41] = system: T47D
[42] = system: OVCAR-5
[43] = system: DU-145
[44] = system: NCI-H460
[45] = system: HOP-62
[46] = system: BT-549
[47] = system: NCI-H226
[48] = system: DMS-114
[49] = system: HCT-15
[50] = system: A549
[51] = system: SNB-75
[52] = system: CAKI-1
[53] = system: OVCAR-8
[54] = system: RXF 393
[55] = system: UO-31
[56] = system: Malme-3M
[57] = system: HL-60
[58] = system: UACC-257
[59] = system: EKVX
[60] = system: XF498
[61] = system: UACC-62
[62] = system: LXFL 529
[63] = system: OVCAR-3
[64] = system: 786-0
[65] = system: SF-268
[66] = system: SF-295
[67] = system: NCI-H23
[68] = system: M19-MEL
[69] = system: DMS-273

With `CC(=O)OCC1OC(n2cc(F)c(=O)[nH]c2=O)C(OC(C)=O)C1OC(C)=O` (stereo not given) the GI50 [1] was 30.8 µM (inactive), the GI50 [2] was 27.9 µM (inactive) and the GI50 [3] was 25.2 µM (inactive). For the same compound, the GI50 [4] was 9.27 µM (inactive), the GI50 [5] was 4.25 µM (inactive) and the GI50 [6] was 5.9 µM (inactive). For the same compound, the GI50 [7] was 73.8 µM (inactive), the GI50 [8] was 38 µM (inactive) and the GI50 [9] was 37.4 µM (inactive). For the same compound, the GI50 [10] was 32.5 µM (inactive), the GI50 [11] was 28.2 µM (inactive) and the GI50 [12] was > 100 µM (inactive). The GI50 [13] was 9.86 µM (inactive), the GI50 [14] was 52.4 µM (inactive) and the GI50 [15] was 48.9 µM (inactive). For the same compound, the GI50 [16] was 7.1 µM (inactive), the GI50 [17] was 6 µM (inactive) and the GI50 [18] was 15.5 µM (inactive). For the same compound, the GI50 [19] was 30.3 µM (inactive), the GI50 [20] was 17 µM (inactive) and the GI50 [21] was 11.5 µM (inactive). The GI50 [22] was 6.73 µM (inactive), the GI50 [23] was 15.4 µM (inactive) and the GI50 [24] was 4.13 µM (inactive). For the same compound, the GI50 [25] was 16.7 µM (inactive), the GI50 [26] was 8.41 µM (inactive) and the GI50 [27] was > 100 µM (inactive). The GI50 [28] was 7.55 µM (inactive), the GI50 [29] was 1.71 µM (inactive) and the GI50 [30] was 13.4 µM (inactive). For the same compound, the GI50 [31] was 16.6 µM (inactive), the GI50 [32] was 34.6 µM (inactive) and the GI50 [33] was 54.1 µM (inactive). For the same compound, the GI50 [34] was > 73.5 µM (inactive), the GI50 [35] was 19.8 µM (inactive) and the GI50 [36] was > 59.3 µM (inactive). The GI50 [37] was 12.9 µM (inactive), the GI50 [38] was 12.2 µM (inactive) and the GI50 [39] was 61.2 µM (inactive). The GI50 [40] was 56 µM (inactive), the GI50 [41] was 19.2 µM (inactive) and the GI50 [42] was 33.8 µM (inactive). For the same compound, the GI50 [43] was 70.5 µM (inactive), the GI50 [44] was 5.37 µM (inactive) and the GI50 [45] was 44 µM (inactive). The GI50 [46] was 68.5 µM (inactive), the GI50 [47] was 59.8 µM (inactive) and the GI50 [48] was 39.8 µM (inactive). The GI50 [49] was 13.7 µM, the GI50 [50] was 16.7 µM (inactive) and the GI50 [51] was 23.6 µM (inactive). The GI50 [52] was 25.9 µM (inactive), the GI50 [53] was 26 µM (inactive) and the GI50 [54] was 45.9 µM (inactive). For the same compound, the GI50 [55] was 11.8 µM (inactive), the GI50 [56] was 5.05 µM (inactive) and the GI50 [57] was 27.9 µM (inactive). The GI50 [58] was 47.3 µM (inactive), the GI50 [59] was > 75.2 µM (inactive) and the GI50 [60] was 4.57 µM (inactive). For the same compound, the GI50 [61] was 17.5 µM (inactive), the GI50 [62] was 4.31 µM (inactive) and the GI50 [63] was 23.3 µM (inactive). The GI50 [64] was 12.2 µM (inactive), the GI50 [65] was 12.5 µM (inactive) and the GI50 [66] was 52.7 µM (inactive). The GI50 [67] was 75.2 µM (inactive) and the GI50 [68] was 4.07 µM (inactive).

For `N#CC(C(=O)CCC(=O)Nc1cccc(C(F)(F)F)c1)c1ccc(Cl)cc1` (stereo not given), the GI50 [1] was > 100 µM (inactive), the GI50 [2] was > 100 µM (inactive) and the GI50 [4] was > 100 µM (inactive). For the same compound, the GI50 [5] was > 100 µM (inactive), the GI50 [6] was > 100 µM (inactive) and the GI50 [8] was > 100 µM (inactive). For the same compound, the GI50 [10] was > 100 µM (inactive), the GI50 [12] was > 100 µM (inactive) and the GI50 [13] was > 100 µM (inactive). The GI50 [14] was > 100 µM (inactive), the GI50 [15] was > 100 µM (inactive) and the GI50 [16] was > 100 µM (inactive). The GI50 [17] was > 100 µM (inactive), the GI50 [18] was > 100 µM (inactive) and the GI50 [19] was > 100 µM (inactive). The GI50 [23] was > 100 µM (inactive), the GI50 [24] was > 100 µM (inactive) and the GI50 [25] was > 100 µM (inactive). For the same compound, the GI50 [26] was > 100 µM (inactive), the GI50 [27] was > 100 µM (inactive) and the GI50 [28] was > 100 µM (inactive). For the same compound, the GI50 [30] was > 100 µM (inactive), the GI50 [31] was > 100 µM (inactive) and the GI50 [33] was > 100 µM (inactive). For the same compound, the GI50 [34] was > 100 µM (inactive), the GI50 [35] was > 100 µM (inactive) and the GI50 [37] was > 100 µM (inactive). The GI50 [38] was > 100 µM (inactive), the GI50 [39] was > 100 µM (inactive) and the GI50 [40] was > 100 µM (inactive). For the same compound, the GI50 [42] was > 100 µM (inactive), the GI50 [44] was > 100 µM (inactive) and the GI50 [45] was > 100 µM (inactive). The GI50 [47] was > 100 µM (inactive), the GI50 [49] was > 100 µM and the GI50 [50] was > 100 µM (inactive). For the same compound, the GI50 [52] was > 100 µM (inactive), the GI50 [53] was > 100 µM (inactive) and the GI50 [55] was > 100 µM (inactive). For the same compound, the GI50 [56] was > 100 µM (inactive), the GI50 [57] was > 100 µM (inactive) and the GI50 [69] was > 100 µM (inactive). The GI50 [58] was > 100 µM (inactive), the GI50 [59] was > 100 µM (inactive) and the GI50 [60] was > 100 µM (inactive). The GI50 [61] was > 100 µM (inactive), the GI50 [62] was > 100 µM (inactive) and the GI50 [63] was > 100 µM (inactive). For the same compound, the GI50 [64] was > 100 µM (inactive), the GI50 [65] was > 100 µM (inactive) and the GI50 [66] was > 100 µM (inactive). The GI50 [67] was > 100 µM (inactive) and the GI50 [68] was > 100 µM (inactive).

For `Cc1cccc(N(CC(=O)O)S(=O)(=O)c2ccccc2)c1`, the GI50 [1] was > 100 µM (inactive), the GI50 [2] was > 100 µM (inactive) and the GI50 [3] was > 100 µM (inactive). For the same compound, the GI50 [4] was > 100 µM (inactive), the GI50 [6] was > 100 µM (inactive) and the GI50 [8] was > 100 µM (inactive). The GI50 [10] was > 100 µM (inactive), the GI50 [11] was > 100 µM (inactive) and the GI50 [13] was > 100 µM (inactive). For the same compound, the GI50 [14] was > 100 µM (inactive), the GI50 [15] was > 100 µM (inactive) and the GI50 [16] was > 100 µM (inactive). For the same compound, the GI50 [17] was > 100 µM (inactive), the GI50 [18] was > 100 µM (inactive) and the GI50 [19] was > 100 µM (inactive). For the same compound, the GI50 [23] was > 100 µM (inactive), the GI50 [24] was > 100 µM (inactive) and the GI50 [25] was > 100 µM (inactive). The GI50 [26] was > 100 µM (inactive), the GI50 [27] was > 100 µM (inactive) and the GI50 [28] was > 100 µM (inactive). The GI50 [30] was > 100 µM (inactive), the GI50 [31] was > 100 µM (inactive) and the GI50 [33] was > 100 µM (inactive). The GI50 [34] was > 100 µM (inactive), the GI50 [35] was > 100 µM (inactive) and the GI50 [37] was > 100 µM (inactive). The GI50 [38] was > 100 µM (inactive), the GI50 [39] was > 100 µM (inactive) and the GI50 [40] was > 100 µM (inactive). The GI50 [42] was > 100 µM (inactive), the GI50 [44] was > 100 µM (inactive) and the GI50 [47] was > 100 µM (inactive). The GI50 [49] was > 100 µM, the GI50 [50] was > 100 µM (inactive) and the GI50 [51] was > 100 µM (inactive). For the same compound, the GI50 [52] was > 100 µM (inactive), the GI50 [53] was > 100 µM (inactive) and the GI50 [54] was > 100 µM (inactive). The GI50 [55] was > 100 µM (inactive), the GI50 [56] was > 100 µM (inactive) and the GI50 [57] was > 100 µM (inactive). The GI50 [69] was > 100 µM (inactive), the GI50 [58] was > 100 µM (inactive) and the GI50 [59] was > 100 µM (inactive). The GI50 [60] was > 100 µM (inactive), the GI50 [61] was > 100 µM (inactive) and the GI50 [62] was > 100 µM (inactive). For the same compound, the GI50 [63] was > 100 µM (inactive), the GI50 [64] was > 100 µM (inactive) and the GI50 [65] was > 100 µM (inactive). For the same compound, the GI50 [66] was > 100 µM (inactive), the GI50 [67] was > 100 µM (inactive) and the GI50 [68] was > 100 µM (inactive).
